For 13 molecules, IC50 and EC50 results are on record in US12252481B2, “Anti-viral compounds” (Aligos Therapeutics, Inc., priority 2021, dated 2025).

Experiment [1] addresses T1, HRV3C (Human rhinovirus 14, UniProt P03303).
T1 construct: 3CLpro and HRV3C was added using a Multidrop Combi
Briefly: biochemical. Also noted: species or system HRV. As to conditions: HRV3C, 30 mins preincubation, SAMDI-MS; read-out: HRV IC50 (bound).

In experiment [2] the target is T2, SARS-Cov-2 3CLpro (Severe acute respiratory syndrome coronavirus 2, UniProt P0DTD1).
T2 construct: 3CLpro and HRV3C was added using a Multidrop Combi
In words: biochemical. The note with it: 3CLpro, 30 mins preincubation, SAMDI-MS; read-out: SARS-Cov-2 IC50 (class).

The target in experiment [3] is T3, human cathepsin L (Homo sapiens, UniProt P07711).
T3 construct: purchased R&D Systems
In words: Cathepsin L assay (Z-FR-AMC fluorescence). The class given is biochemical. The note with it: 10 pM human cathepsin L, 30 mins preincubation, Z-FR-AMC 2 μM. The protocol: For the cathepsin L assay, 10 pM of human cathepsin L (R&D Systems; Minneapolis, MN) was preincubated for 30 mins with test compounds. Reactions were initiated by the addition of a peptide substrate Z—FR-AMC (final concentration 2 μM, Anaspec; Fremont, CA). Fluorescence was measured at 2-minute intervals for 30 mins using a 355/460 excitation/emission filter module on an Envision plate reader (Perkin Elmer; Waltham, MA). The IC50 values were calculated for each assay by fitting the curves using a four-parameter equation in GraphPad Prism.

The test system of experiment [4] is SARS-CoV-2-GHB-03021/2020. The class given is cell-based. The note with it: read-out: VeroE6 + CP (EC50).
Experiment [5] concerns human beta-coronavirus OC43. In words: OC43 coronavirus antiviral assay in HeLa cells (cytopathic effect, cell-titer-glo). Type of experiment: cell-based. As to conditions: Betacoronavirus 1, OC43, HeLa, 144 h, 6 days at 33° C. Background: Cytopathic effects are the visible damage that an infection or toxin causes in cultured cells.
In experiment [6] the test system is B.1.1.7 lineage SARS-CoV-2. In words: microbe, parasite or virus in culture. Type of experiment: cell-based.
[7] abbreviates: Severe acute respiratory syndrome coronavirus 2, 96 h; read-out: A549-dual_ACE2_TMPRSS2 (EC50).

pEC50, pIC50: −log10 of the molar value. Like-named read-outs stand apart in the source and are kept apart here.

T1 sequence (P03303 1538-1719): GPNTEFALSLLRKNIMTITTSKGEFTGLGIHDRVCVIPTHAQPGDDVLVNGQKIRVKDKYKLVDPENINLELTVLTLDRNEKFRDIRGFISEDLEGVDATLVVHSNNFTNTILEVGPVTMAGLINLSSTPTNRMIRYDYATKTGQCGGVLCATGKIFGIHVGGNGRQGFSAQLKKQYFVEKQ
T3 sequence (P07711 114-333): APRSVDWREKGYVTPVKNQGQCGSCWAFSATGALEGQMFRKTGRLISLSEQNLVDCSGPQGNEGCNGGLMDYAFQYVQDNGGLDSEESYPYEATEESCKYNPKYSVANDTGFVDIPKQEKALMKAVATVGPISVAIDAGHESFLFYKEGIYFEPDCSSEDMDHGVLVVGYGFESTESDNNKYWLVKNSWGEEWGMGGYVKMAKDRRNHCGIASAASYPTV

On to `CC(C)(C)[C@H](NC(=O)C(F)(F)F)C(=O)N1C[C@H]2[C@@H]([C@H]1C(=O)NC(C#N)Cc1ccc[nH]c1=O)[C@H]1C=C[C@@H]2C1` (single isomer, unassigned) [Compound 57, (1S,3aR,4S,7R,7aS)-N-((S*)-1-cyano-2-(2-oxo-1,2-dihydropyridin-3-yl)ethyl)-2-((S)-3,3-dimethyl-2-(2,2,2-trifluoroacetamido)butanoyl)-2,3,3a,4,7,7a-hexahydro-1H-4,7-methanoisoindole-1-carboxamide], for which the pIC50 in experiment [1] was below 5.00; in experiment [2], 6.70 to 7.70; in experiment [3] it was at most 5.00. In addition, the pEC50 in experiment [4], in experiment [5] (read-out: EC50 (class)) and in experiment [6] (setting [7]) was 6.00 to 7.00 throughout.
Turning to `CC(C)(C)[C@H](NC(=O)C(F)(F)F)C(=O)N1C[C@H]2[C@@H]([C@H]1C(=O)N[C@H](C#N)C[C@@H]1CCCNC1=O)[C@H]1C=C[C@@H]2C1` [Example 16, (1S,3aR,4S,7R,7aS)-N-((S)-1-cyano-2-((S)-2-oxopiperidin-3-yl)ethyl)-2-((S)-3,3-dimethyl-2-(2,2,2-trifluoroacetamido)butanoyl)-2,3,3a,4,7,7a-hexahydro-1H-4,7-methanoisoindole-1-carboxamide], the pIC50 in experiment [1] was below 5.00; in experiment [2] it was above 7.70; in experiment [3], at most 5.00. For the same molecule, the pEC50 in experiment [4], in experiment [5] (read-out: EC50 (class)) and in experiment [6] (setting [7]) was above 7.00 in each case.
Consider `CC(C)(C)[C@H](NC(=O)C1CC12CC2)C(=O)N1C[C@H]2[C@@H]([C@H]1C(=O)N[C@H](C#N)C[C@@H]1CCNC1=O)[C@H]1C=C[C@@H]2C1` (stereo partly drawn) [Example 34, (1R,2S,3S,6R,7S)—N-[(1S)-1-cyano-2-[(3S)-2-oxopyrrolidin-3-yl]ethyl]-4-[(2S)-3,3-dimethyl-2-{spiro[2.2]pentan-1-ylformamido}butanoyl]-4-azatricyclo[5.2.1.0^{2,6}]dec-8-ene-3-carboxamide], for which the negative-log IC50 (pIC50) is below 5.00 in experiment [1], above 7.70 in experiment [2] and at most 5.00 in experiment [3]. Besides, the figures for the pEC50 in experiment [4], in experiment [5] (read-out: EC50 (class)) and in experiment [6] (setting [7]) were above 7.00, above 7.00 and 6.00 to 7.00, respectively.
As for `CC(C)(C)[C@H](NC(=O)C1(F)CC1)C(=O)N1C[C@H]2[C@@H]([C@H]1C(=O)N[C@H](C#N)C[C@@H]1CCNC1=O)[C@H]1C=C[C@@H]2C1` [Example 30, (1R,2S,3S,6R,7S)—N-[(1S)-1-cyano-2-[(3S)-2-oxopyrrolidin-3-yl]ethyl]-4-[(2S)-2-[(1-fluorocyclopropyl)formamido]-3,3-dimethylbutanoyl]-4-azatricyclo[5.2.1.0^{2,6}]dec-8-ene-3-carboxamide], the negative logarithm of the IC50 (pIC50) in experiment [1] was below 5.00; in experiment [2], above 7.70; in experiment [3], at most 5.00. In addition, the pEC50 in experiment [4], in experiment [5] (read-out: EC50 (class)) and in experiment [6] (setting [7]) was above 7.00 in each case.
Consider `CC(C)(C)[C@H](NC(=O)[C@H]1CC1(F)F)C(=O)N1C[C@H]2[C@@H]([C@H]1C(=O)N[C@H](C#N)C[C@@H]1CCNC1=O)[C@H]1C=C[C@@H]2C1` [Example 33, (1S,3aR,4S,7R,7aS)-N-((S)-1-cyano-2-((S)-2-oxopyrrolidin-3-yl)ethyl)-2-((S)-2-((R)-2,2-difluorocyclopropane-1-carboxamido)-3,3-dimethylbutanoyl)-2,3,3a,4,7,7a-hexahydro-1H-4,7-methanoisoindole-1-carboxamide], for which the pIC50 is below 5.00 in experiment [1], above 7.70 in experiment [2] and at most 5.00 in experiment [3]. For the same molecule, the pEC50 was above 7.00 in experiment [4], above 7.00 in experiment [5] (read-out: EC50 (class)) and 6.00 to 7.00 in experiment [6] (setting [7]).
For the molecule `C#CC(C)(C)[C@H](NC(=O)C(F)(F)F)C(=O)N1C[C@@H]2[C@@H]3CC[C@@H](C3)[C@@H]2[C@H]1C(=O)N[C@H](C#N)C[C@@H]1CCNC1=O` [Example 13, (1S,2S,3S,6R,7R)—N-[(1S)-1-cyano-2-[(3S)-2-oxopyrrolidin-3-yl]ethyl]-4-[(2S)-3,3-dimethyl-2-(2,2,2-trifluoroacetamido)pent-4-ynoyl]-4-azatricyclo[5.2.1.0^{2,6}]decane-3-carboxamide], the pIC50 in experiment [1] was below 5.00; in experiment [2], 6.70 to 7.70; in experiment [3], at most 5.00. Also, the pEC50 is above 7.00 in experiment [4], 6.00 to 7.00 in experiment [5] (read-out: EC50 (class)) and above 7.00 in experiment [6] (setting [7]).
Turning to `[2H]C1([2H])C[C@@H](C[C@@H](C#N)NC(=O)[C@@H]2[C@@H]3[C@H](CN2C(=O)[C@@H](NC(=O)C(F)(F)F)C(C)(C)C)[C@@H]2C=C[C@H]3C2)C(=O)N1` [Compound 50, (1S,3aR,4S,7R,7aS)-N-((S)-1-cyano-2-((S)-2-oxopyrrolidin-3-yl-5,5-d2)ethyl)-2-((S)-3,3-dimethyl-2-(2,2,2-trifluoroacetamido)butanoyl)-2,3,3a,4,7,7a-hexahydro-1H-4,7-methanoisoindole-1-carboxamide], the pIC50 is below 5.00 in experiment [1], above 7.70 in experiment [2] and at most 5.00 in experiment [3]. The negative-log EC50 (pEC50) in experiment [4], in experiment [5] (read-out: EC50 (class)) and in experiment [6] (setting [7]) was above 7.00 in each case.
As to `CC(C)(C)[C@H](NC(=O)C(F)(F)F)C(=O)N1C[C@@H]2[C@@H]3CC[C@@H](C3)[C@@H]2[C@H]1C(=O)N[C@H](C#N)CC1Cn2nccc2NC1=O` (relative stereo) [Compound 17a, (1S,3aR,4R,7S,7aS)-N-((S)-1-cyano-2-((R*)-5-oxo-4,5,6,7-tetrahydropyrazolo[1,5-a]pyrimidin-6-yl)ethyl)-2-((S)-3,3-dimethyl-2-(2,2,2-trifluoroacetamido)butanoyl)octahydro-1H-4,7-methanoisoindole-1-carboxamide], the pIC50 in experiment [1] was below 5.00; in experiment [2] it was above 7.70; in experiment [3], at most 5.00. The pEC50 is above 7.00 in experiment [4], above 7.00 in experiment [5] (read-out: EC50 (class)) and 6.00 to 7.00 in experiment [6] (setting [7]).
On to `CC(C)(C)[C@@H](C(=O)N1C[C@H]2[C@@H]([C@H]1C(=O)N[C@H](C#N)C[C@@H]1CCNC1=O)[C@H]1C=C[C@@H]2C1)N1CCCC1=O` [Compound 70], for which the pIC50 was below 5.00 in experiment [1], 4.70 to 5.70 in experiment [2] and at most 5.00 in experiment [3]. Moreover, the pEC50 in experiment [4] is 4.30 to 5.00; in experiment [5] (read-out: EC50 (bound)), below 5.00; in experiment [6] (Severe acute respiratory syndrome coronavirus 2, 96 h; […]; numeric bounds given instead of class symbols; read-out: A549-dual_ACE2_TMPRSS2 (EC50)), below 5.00.
Regarding `CC(C)(C)[C@H](NC(=O)C(F)(F)F)C(=O)N1C[C@H]2[C@@H]([C@H]1C(=O)N[C@H](C#N)C[C@@H]1CCNC1=O)[C@H]1CC[C@@H]2C12CC2` [Example 18, (1′R,2′S,3′S,6′R,7′S)—N-[(1S)-1-cyano-2-[(3S)-2-oxopyrrolidin-3-yl]ethyl]-4′-[(2S)-3,3-dimethyl-2-(2,2,2-trifluoroacetamido)butanoyl]-4′-azaspiro[cyclopropane-1,10′-tricyclo[5.2.1.0^{2,6}]decane]-3′-carboxamide], the values for the pIC50 in experiment [1], in experiment [2] and in experiment [3] were below 5.00, above 7.70 and at most 5.00, respectively. Also, the pEC50 in experiment [4] is above 7.00; in experiment [5] (read-out: EC50 (class)), above 7.00; in experiment [6] (setting [7]) it was 6.00 to 7.00.
With `N#C[C@H](C[C@@H]1CCNC1=O)NC(=O)[C@@H]1[C@@H]2[C@H](CN1C(=O)[C@@H]1C[C@]13CCc1ccccc13)[C@@H]1C=C[C@H]2C1` (single isomer, unassigned) [Example 38, (1S,3aR,4S,7R,7aS)-N-((S)-1-cyano-2-((S)-2-oxopyrrolidin-3-yl)ethyl)-2-((1R*,2R*)-2′,3′-dihydrospiro[cyclopropane-1,1′-indene]-2-carbonyl)-2,3,3a,4,7,7a-hexahydro-1H-4,7-methanoisoindole-1-carboxamide], the pIC50 in experiment [3] is at most 5.00. Besides, the pEC50 in experiment [4] was 6.00 to 7.00; in experiment [5] (read-out: EC50 (class)) it was 5.00 to 6.00; in experiment [6] (Severe acute respiratory syndrome coronavirus 2, 96 h, read-out: A549-dual_ACE2_TMPRSS2 (EC50)) it was 5.00 to 6.00.
Consider `C[C@@H](OCC1CC1)[C@H](NC(=O)C(F)(F)F)C(=O)N1C[C@H]2[C@@H]([C@H]1C(=O)N[C@H](C#N)C[C@@H]1CCNC1=O)[C@H]1C=C[C@@H]2C1` [Example 99], for which the values for the pIC50 in experiment [1], in experiment [2] and in experiment [3] were below 6.30, above 7.70 and at most 5.00, respectively. In addition, the pEC50 in experiment [5] (read-out: EC50 (class)) and in experiment [6] (setting [7]) was above 7.00 in each case.
On to `CC(C)(C)[C@H](NC(=O)C(F)F)C(=O)N1C[C@H]2[C@@H]([C@H]1C(=O)N[C@H](C#N)C[C@@H]1CCNC1=O)[C@H]1C=C[C@@H]2C1` [Compound 72, (1S,3aR,4S,7R,7aS)-N-((S)-1-cyano-2-((S)-2-oxopyrrolidin-3-yl)ethyl)-2-((S)-2-(2,2-difluoroacetamido)-3,3-dimethylbutanoyl)-2,3,3a,4,7,7a-hexahydro-1H-4,7-methanoisoindole-1-carboxamide], for which the values for the pIC50 in experiment [1], in experiment [2] and in experiment [3] were below 5.00, above 7.70 and at most 5.00, respectively. Besides, the negative logarithm of the EC50 (pEC50) in experiment [5] (read-out: EC50 (class)) and in experiment [6] (setting [7]) was above 7.00 in each case.

As a reminder, the pIC50 is −log10 of the IC50, conventionally taken in molar units. The term pEC50 denotes −log10 of the EC50, conventionally taken in molar units.
